Assay results taken from US20040018941A1, “Fused-benzene derivatives of thiouracil, herbicidal and desiccant compositions contaning them” (ISHIHARA SANGYO KAISHA, LTD., priority 2002, published 2004).

Legend:
Assay type in all cases: in vivo
Details in all cases: rating 0-100 (0 no damage, 100 complete death), 14 days after application
[1] = test system: redroot pigweed (Amaranthus retroflexus, AMARE); assay: Pre-emerge herbicidal activity, greenhouse screen, AMARE
Text: (§1) A standard greenhouse herbicide activity screening system was used to evaluate the herbicidal efficacy and crop safety of these test compounds. Seven broadleaf weed species including redroot pigweed (Amaranthus retroflexus, AMARE), velvetleaf (Abutilon theophrasti, ABUTH), sicklepod (Cassia obtusifolia, CASOB), ivyleaf morningglory (Ipomoea hederacea, IPOHE), lambsquarters (Chenopodium album, CHEAL), common ragweed (Ambrosia artemisiifolia L., AMBEL), and cocklebur (Xanthium strumarium, XANST) were used as test species. Four grass weed species including green foxtail (Setaria viridis, SETVI), barnyardgrass (Echinochloa crus-galli, ECHCG), johnsongrass (Sorghum halepense, SORHA), and large crabgrass (Digitaria sanguinalis, DIGSA) were also used. In addition, three crop species, field corn (Zea mays L., var. Dekalb 527, CORN), soybean (Glycine max L., var. Pella 86, SOY), and upland rice (Oryza sp., var. Tebonnet, RICE) were included.
(§2) All plants were grown in 10 cm square plastic pots which were filled with a sandy loam soil mix. For pre-emerge tests, seeds were planted one day prior to application of the test compounds. For post-emerge tests, seeds were planted 8-21 days prior to the test to allow emergence and good foliage development prior to application of the test substances. At the time of the post-emerge application, plants of all species were usually at the 2-3 leaf stage of development.
(§3) All test compounds were dissolved in acetone and applied to the test units in a volume of 187 l/ha. Test materials were applied at rates ranging from 15 g ai/ha to 1000 g ai/ha using a track sprayer equipped with a TJ8001 E even flow flat fan spray nozzle. Plants were arranged on a shelf so that the top of the canopy (post-emerge) or top of the soil surface (pre-emerge) was 40-45 cm below the nozzle. Pressurized air was used to force the test solution through the nozzle as it was mechanically advanced over the top of all test plants/pots. This application simulates a typical commercial field herbicide application.
(§4) In the post-emerge test, a commercial non-ionic surfactant was also included (0.25% v/v) to enhance wetting of the leaf surfaces of target plants. Immediately after application, test units of the pre-emerge applications were watered at the soil surface to incorporate the test materials.
(§5) At 14 days after application of the test materials, phytotoxicity ratings were recorded. A rating scale of 0-100 was used as previously described in Research Methods in Weed Science, 2nd edition, B. Truelove, Ed., Southern Weed Science Society, Auburn University, Auburn, Ala., 1977. Briefly, “0” corresponds to no damage and “100” corresponds to complete death of all plants in the test unit. This scale was used both to determine efficacy against weed species and damage to crop species. Herbicide activity data for various compounds of this invention, which are shown by compound No. in Tables 1-7, are shown in Tables 8 and 9.

[2] = test system: velvetleaf (Abutilon theophrasti, ABUTH); assay: Pre-emerge herbicidal activity, greenhouse screen, ABUTH
Text: as §1, §2, §3, §4, §5

[3] = test system: sicklepod (Cassia obtusifolia, CASOB); assay: Pre-emerge herbicidal activity, greenhouse screen, CASOB
Text: as §1, §2, §3, §4, §5

[4] = test system: ivyleaf morningglory (Ipomoea hederacea, IPOHE); assay: Pre-emerge herbicidal activity, greenhouse screen, IPOHE
Text: as §1, §2, §3, §4, §5

[5] = test system: lambsquarters (Chenopodium album, CHEAL); assay: Pre-emerge herbicidal activity, greenhouse screen, CHEAL
Text: as §1, §2, §3, §4, §5

[6] = test system: common ragweed (Ambrosia artemisiifolia L., AMBEL); assay: Pre-emerge herbicidal activity, greenhouse screen, AMBEL
Text: as §1, §2, §3, §4, §5

[7] = test system: green foxtail (Setaria viridis, SETVI); assay: Pre-emerge herbicidal activity, greenhouse screen, SETVI
Text: as §1, §2, §3, §4, §5

[8] = test system: barnyardgrass (Echinochloa crus-galli, ECHCG); assay: Pre-emerge herbicidal activity, greenhouse screen, ECHCG
Text: as §1, §2, §3, §4, §5

[9] = test system: johnsongrass (Sorghum halepense, SORHA); assay: Pre-emerge herbicidal activity, greenhouse screen, SORHA
Text: as §1, §2, §3, §4, §5

[10] = test system: large crabgrass (Digitaria sanguinalis, DIGSA); assay: Pre-emerge herbicidal activity, greenhouse screen, DIGSA
Text: as §1, §2, §3, §4, §5

[11] = test system: redroot pigweed (Amaranthus retroflexus, AMARE); assay: Post-emerge herbicidal activity, greenhouse screen, AMARE
Text: as §1, §2, §3, §4, §5

[12] = test system: velvetleaf (Abutilon theophrasti, ABUTH); assay: Post-emerge herbicidal activity, greenhouse screen, ABUTH
Text: as §1, §2, §3, §4, §5

[13] = test system: sicklepod (Cassia obtusifolia, CASOB); assay: Post-emerge herbicidal activity, greenhouse screen, CASOB
Text: as §1, §2, §3, §4, §5

[14] = test system: ivyleaf morningglory (Ipomoea hederacea, IPOHE); assay: Post-emerge herbicidal activity, greenhouse screen, IPOHE
Text: as §1, §2, §3, §4, §5

[15] = test system: lambsquarters (Chenopodium album, CHEAL); assay: Post-emerge herbicidal activity, greenhouse screen, CHEAL
Text: as §1, §2, §3, §4, §5

[16] = test system: common ragweed (Ambrosia artemisiifolia L., AMBEL); assay: Post-emerge herbicidal activity, greenhouse screen, AMBEL
Text: as §1, §2, §3, §4, §5

[17] = test system: green foxtail (Setaria viridis, SETVI); assay: Post-emerge herbicidal activity, greenhouse screen, SETVI
Text: as §1, §2, §3, §4, §5

[18] = test system: barnyardgrass (Echinochloa crus-galli, ECHCG); assay: Post-emerge herbicidal activity, greenhouse screen, ECHCG
Text: as §1, §2, §3, §4, §5

[19] = test system: johnsongrass (Sorghum halepense, SORHA); assay: Post-emerge herbicidal activity, greenhouse screen, SORHA
Text: as §1, §2, §3, §4, §5

[20] = test system: large crabgrass (Digitaria sanguinalis, DIGSA); assay: Post-emerge herbicidal activity, greenhouse screen, DIGSA
Text: as §1, §2, §3, §4, §5

| Compound | Pre-emerge Herbicidal Activity AMARE ([1]; 63 g ai/ha) | Pre-emerge Herbicidal Activity AMARE ([1]; 250 g ai/ha) | Pre-emerge Herbicidal Activity ABUTH ([2]; 63 g ai/ha) | Pre-emerge Herbicidal Activity ABUTH ([2]; 250 g ai/ha) | Pre-emerge Herbicidal Activity CASOB ([3]; 63 g ai/ha) | Pre-emerge Herbicidal Activity CASOB ([3]; 250 g ai/ha) | Pre-emerge Herbicidal Activity IPOHE ([4]; 63 g ai/ha) | Pre-emerge Herbicidal Activity IPOHE ([4]; 250 g ai/ha) | Pre-emerge Herbicidal Activity CHEAL ([5]; 63 g ai/ha) | Pre-emerge Herbicidal Activity CHEAL ([5]; 250 g ai/ha) | Pre-emerge Herbicidal Activity AMBEL ([6]; 63 g ai/ha) | Pre-emerge Herbicidal Activity AMBEL ([6]; 250 g ai/ha) | Pre-emerge Herbicidal Activity SETVI ([7]; 63 g ai/ha) | Pre-emerge Herbicidal Activity SETVI ([7]; 250 g ai/ha) | Pre-emerge Herbicidal Activity ECHCG ([8]; 63 g ai/ha) | Pre-emerge Herbicidal Activity ECHCG ([8]; 250 g ai/ha) | Pre-emerge Herbicidal Activity SORHA ([9]; 63 g ai/ha) | Pre-emerge Herbicidal Activity SORHA ([9]; 250 g ai/ha) | Pre-emerge Herbicidal Activity DIGSA ([10]; 63 g ai/ha) | Pre-emerge Herbicidal Activity DIGSA ([10]; 250 g ai/ha) | further results |
| --- | --- | --- | --- | --- | --- | --- | --- | --- | --- | --- | --- | --- | --- | --- | --- | --- | --- | --- | --- | --- | --- |
| Cn1c(C(F)(F)F)cc(=O)n(-c2c(F)cc(Cl)c3nc(C(C)(C)C)oc23)c1=S [Compound 1-3, 3-[2-t-butyl-4-chloro-6-fluoro-1,3-benzoxazol-7-yl]-1-methyl-2-thioxo-6-(trifluoromethyl)-2,3-dihydropyrimidin-4(1H)-one] | 100 | 100 | 100 | 100 | 95 | 100 | 95 | 100 | 100 | 100 | 99 | 100 | 100 | 100 | 100 | 100 | 100 | 100 | 100 | 100 | Post-emerge Herbicidal Activity AMARE ([11]; 63 g ai/ha): 100; Post-emerge Herbicidal Activity AMARE ([11]; 250 g ai/ha): 100; Post-emerge Herbicidal Activity ABUTH ([12]; 63 g ai/ha): 100; Post-emerge Herbicidal Activity ABUTH ([12]; 250 g ai/ha): 100; Post-emerge Herbicidal Activity CASOB ([13]; 63 g ai/ha): 70; Post-emerge Herbicidal Activity CASOB ([13]; 250 g ai/ha): 100; Post-emerge Herbicidal Activity IPOHE ([14]; 63 g ai/ha): 100; Post-emerge Herbicidal Activity IPOHE ([14]; 250 g ai/ha): 100; Post-emerge Herbicidal Activity CHEAL ([15]; 63 g ai/ha): 100; Post-emerge Herbicidal Activity CHEAL ([15]; 250 g ai/ha): 100; Post-emerge Herbicidal Activity AMBEL ([16]; 63 g ai/ha): 99; Post-emerge Herbicidal Activity AMBEL ([16]; 250 g ai/ha): 100; Post-emerge Herbicidal Activity SETVI ([17]; 63 g ai/ha): 99; Post-emerge Herbicidal Activity SETVI ([17]; 250 g ai/ha): 100; Post-emerge Herbicidal Activity ECHCG ([18]; 63 g ai/ha): 100; Post-emerge Herbicidal Activity ECHCG ([18]; 250 g ai/ha): 100; Post-emerge Herbicidal Activity SORHA ([19]; 63 g ai/ha): 65; Post-emerge Herbicidal Activity SORHA ([19]; 250 g ai/ha): 85; Post-emerge Herbicidal Activity DIGSA ([20]; 63 g ai/ha): 50; Post-emerge Herbicidal Activity DIGSA ([20]; 250 g ai/ha): 65 |
| Cn1c(C(F)(F)F)cc(=O)n(-c2c(F)cc(Cl)c3ncoc23)c1=S [Compound 1-1, 3-(4-chloro-6-fluoro-1,3-benzoxazol-7-yl)-1-methyl-2-thioxo-6-(trifluoromethyl)-2,3-dihydropyrimidin4(1H)-one] | 100 | 100 | 100 | 100 | 100 | 100 | 100 | 100 | 100 | 100 | 100 | 100 | 100 | 100 | 100 | 100 | 100 | 100 | 100 | 100 | Post-emerge Herbicidal Activity AMARE ([11]; 63 g ai/ha): 100; Post-emerge Herbicidal Activity AMARE ([11]; 250 g ai/ha): 100; Post-emerge Herbicidal Activity ABUTH ([12]; 63 g ai/ha): 100; Post-emerge Herbicidal Activity ABUTH ([12]; 250 g ai/ha): 100; Post-emerge Herbicidal Activity CASOB ([13]; 63 g ai/ha): 100; Post-emerge Herbicidal Activity CASOB ([13]; 250 g ai/ha): 100; Post-emerge Herbicidal Activity IPOHE ([14]; 63 g ai/ha): 100; Post-emerge Herbicidal Activity IPOHE ([14]; 250 g ai/ha): 100; Post-emerge Herbicidal Activity CHEAL ([15]; 63 g ai/ha): 100; Post-emerge Herbicidal Activity CHEAL ([15]; 250 g ai/ha): 100; Post-emerge Herbicidal Activity AMBEL ([16]; 63 g ai/ha): 100; Post-emerge Herbicidal Activity AMBEL ([16]; 250 g ai/ha): 100; Post-emerge Herbicidal Activity SETVI ([17]; 63 g ai/ha): 100; Post-emerge Herbicidal Activity SETVI ([17]; 250 g ai/ha): 100; Post-emerge Herbicidal Activity ECHCG ([18]; 63 g ai/ha): 100; Post-emerge Herbicidal Activity ECHCG ([18]; 250 g ai/ha): 100; Post-emerge Herbicidal Activity SORHA ([19]; 63 g ai/ha): 95; Post-emerge Herbicidal Activity SORHA ([19]; 250 g ai/ha): 100; Post-emerge Herbicidal Activity DIGSA ([20]; 63 g ai/ha): 95; Post-emerge Herbicidal Activity DIGSA ([20]; 250 g ai/ha): 99 |
| Cc1cc2c(-n3c(=O)cc(C(F)(F)F)n(C)c3=S)c(F)cc(Cl)c2o1 [Compound 2-2, 3-(7-chloro-5-fluoro-2-methyl-1-benzofuran-4-yl)-1-methyl-2-thioxo-6-(trifluoromethyl)-2,3-dihydropyrimidin-4(1H)-one] | 100 | 100 | 100 | 100 | 99 | 100 | 99 | 99 | 100 | 100 | 100 | 100 | 100 | 100 | 99 | 100 | 100 | 100 | 100 | 100 | Post-emerge Herbicidal Activity AMARE ([11]; 63 g ai/ha): 100; Post-emerge Herbicidal Activity AMARE ([11]; 250 g ai/ha): 100; Post-emerge Herbicidal Activity ABUTH ([12]; 63 g ai/ha): 100; Post-emerge Herbicidal Activity ABUTH ([12]; 250 g ai/ha): 100; Post-emerge Herbicidal Activity CASOB ([13]; 63 g ai/ha): 100; Post-emerge Herbicidal Activity CASOB ([13]; 250 g ai/ha): 100; Post-emerge Herbicidal Activity IPOHE ([14]; 63 g ai/ha): 100; Post-emerge Herbicidal Activity IPOHE ([14]; 250 g ai/ha): 100; Post-emerge Herbicidal Activity CHEAL ([15]; 63 g ai/ha): 100; Post-emerge Herbicidal Activity CHEAL ([15]; 250 g ai/ha): 100; Post-emerge Herbicidal Activity AMBEL ([16]; 63 g ai/ha): 100; Post-emerge Herbicidal Activity AMBEL ([16]; 250 g ai/ha): 100; Post-emerge Herbicidal Activity SETVI ([17]; 63 g ai/ha): 100; Post-emerge Herbicidal Activity SETVI ([17]; 250 g ai/ha): 100; Post-emerge Herbicidal Activity ECHCG ([18]; 63 g ai/ha): 100; Post-emerge Herbicidal Activity ECHCG ([18]; 250 g ai/ha): 100; Post-emerge Herbicidal Activity SORHA ([19]; 63 g ai/ha): 100; Post-emerge Herbicidal Activity SORHA ([19]; 250 g ai/ha): 100; Post-emerge Herbicidal Activity DIGSA ([20]; 63 g ai/ha): 85; Post-emerge Herbicidal Activity DIGSA ([20]; 250 g ai/ha): 100 |
